Reference: a melting point compilation (Tetko et al.; mined from patent text by program, amines drawn as free bases though some values may be those of a salt)

Row | melting point | SMILES
1 | 226 to 227 °C | O=C(O)c1ccccc1Sc1ccccc1C(=O)O
2 | 164 to 169 °C | CCc1ccc(Cc2c(O)nn(C(C)C)c2C)cc1
3 | 60 to 65 °C | Cc1ccc(C(=O)N2CCC(CCN3C(=O)CCc4c(CC5SC(=O)NC5=O)cccc43)CC2)cc1 (configuration not stated)
4 | 182 °C | CCOCCN(c1cccc2cc(C(N)=S)[nH]c12)S(=O)(=O)c1cccs1
5 | 170 °C | CCOC(=O)C1=C(CCN2C(=O)c3ccccc3C2=O)NC(CCN2C(=O)c3ccccc3C2=O)=C(C(=O)OCC)C1c1ccccc1Cl
6 | 121 to 123 °C | S=C=Nc1ccc(-c2nc(-c3cccnc3)no2)cc1
7 | 115 to 117 °C | CCCCOC(=O)c1ccc(N2CCN(CC=Cc3ccc(Cl)cc3)CC2)cc1
8 | 147 °C | Cc1nccc(N2CCN(C(=O)c3ccccc3)CC2)n1
9 | 83 to 84 °C | Cc1ccc(C(CO)c2ccc(C(C)C)cc2)c(O)c1C (configuration not stated)
10 | 148 to 150 °C | CNc1nc(-c2ccc(OCc3ccccc3)cc2)no1
11 | 60 to 62 °C | CCOP(=O)(CCC(OC)(C(=O)c1ccccc1)c1ccccc1)OCC (configuration not stated)
12 | 146 to 147 °C | Cc1[nH]c2ccc(F)cc2c1CCCN1CCN(c2ccccc2)CC1
13 | 208 °C | O=C1CCC(O)C(C(c2ccccc2)c2ccccc2)N1 (configuration not stated)
14 | 153 to 155 °C | CC(C)(CC(C)(c1ccccc1)c1ccc(O)c(C(=O)O)c1)c1ccccc1 (configuration not stated)
15 | 202 °C | CCC(CC)c1ccc(N(Cc2ccc(-c3csc(COc4cncc(C(=O)O)c4)n3)cc2)C(C)C)cc1
16 | 210 to 220 °C | Cc1ccnc(C(=O)c2[nH]c3cc(C(F)(F)F)ccc3c2CC(=O)O)c1
17 | 157 to 159 °C | O=C(NCCCCOc1ccc(-n2ccnc2)cc1)Nc1ccc(Br)cc1
18 | 127 to 130 °C | CCOC(=O)CN(CC1Nc2cc(Cl)c(S(N)(=O)=O)cc2S(=O)(=O)N1)C(=O)C(C)CSC(C)=O (configuration not stated)
19 | 72 to 82 °C | COC(=O)C(C)NC(=O)NCCCCC1CCSS1 (configuration not stated)
20 | 73 to 80 °C | C=C(CC(C)C)C(=O)NCC(=O)O
21 | 137 °C | CCCc1cc(-c2ccc(F)c3ccccc23)nc(N)n1
22 | 178 °C | Cc1cc(OCC2(O)CCS(=O)(=O)CC2)cc(C)c1-c1cccc(CNc2ccc(CCC(=O)O)c(F)c2)c1
23 | 148 to 149 °C | COc1ccc(CCNC(=O)C(=O)NCc2cccnc2)cc1OC1CCCC1

Row | melting point | SMILES
24 | 163 °C | O=[N+]([O-])c1cccc(C(O)CN2CCNC2=S)c1 (configuration not stated)
25 | 171 to 173 °C | O=C(NCc1ccc(F)cc1)c1ccnc(N2CCN(Cc3ccc(F)cc3F)C2=O)c1
26 | 78 to 81 °C | Cc1cccc(C)c1N(Cc1ccon1)C(=O)CCl
27 | 235 °C | CC(C)(C)c1cc(/C=C/c2nnc(S(C)(=O)=O)s2)cc(C(C)(C)C)c1O
28 | 168 °C | O=C1c2cccc(O)c2C(=O)c2c(NCCCCO)ccc(O)c21
29 | 174 to 175 °C | CCSc1ccc(-c2coc3ccc(-c4nnc(C)o4)nc23)cc1
30 | 115 to 116 °C | CSc1cnn(C(C)(C)C)c(=O)c1C
31 | 261 to 263 °C | Cc1c(F)c(N2CCC(n3ccnn3)CC2)c(F)c2c1c(=O)c(C(=O)O)cn2C1CC1
32 | 114 to 116 °C | CC(C)(C)N1Sc2ccccc2C1O (configuration not stated)
33 | 139 to 140 °C | O=C(O)c1ccccc1Oc1cc(Cl)c(Cl)cc1NS(=O)(=O)c1cc(C(F)(F)F)cc(C(F)(F)F)c1
34 | 198 to 200 °C | C=Cc1cnc(C)c(O)c1CS
35 | 178 to 180 °C | CC(=O)OC1CSC(Oc2ccc(-c3ccc(C(F)(F)F)cc3)nc2)C(OC(C)=O)C1OC(C)=O (configuration not stated)
36 | 127 to 128 °C | Cc1cc(O)c(S(=O)Cc2ccc(F)cc2)c(=O)o1 (configuration not stated)
37 | 227 to 229 °C | Cc1nnc2ccc(-c3ccc(F)cc3)nn12
38 | 133 to 134 °C | CC(=O)OC1CC2=CCC3C4CCC(C(C)CCC=C(C)C)C4(C)CCC3C2(C)C(OC(C)=O)C1 (configuration not stated)
39 | 90 to 95 °C | O=c1c2cnn(CC3CO3)c2ncn1CC1CO1 (configuration not stated)
40 | 94 to 95 °C | CCCCCc1ccc2cc(O)ccc2c1
41 | 100 to 101 °C | OCCON=Cc1ccc(-c2ccccc2)nc1
42 | 244 to 246 °C | Clc1cccc(Nc2ncnc3[nH]c(CN4CCOCC4)cc23)c1
43 | 206 to 209 °C | Oc1ccc(N2CCN(Cc3nc4ccccc4[nH]3)CC2)cc1
44 | 140 °C | CN1CCN(C(=O)COc2cc(-c3ccccc3)nc3ccccc23)CC1=O
45 | 78.5 to 79.5 °C | C=CCC1Oc2c(C)c(C)c(O)c(C)c2S1 (configuration not stated)
46 | 119 to 124 °C | CC1Cc2ccc([Si](C)(C)C)c(S(=O)(=O)NC(C)(C)C)c2S1 (configuration not stated)

Row | melting point | SMILES
47 | 198 to 200 °C | COC(=O)c1cccc(C2C(C#N)=C(N)Oc3c2ccc2cccnc32)c1 (configuration not stated)
48 | 163 °C | CN(C)Cc1ccc(C=CC(=O)N2CCc3c([nH]c4ccccc34)C2c2ccc3c(c2)CCO3)cn1 (configuration not stated)
49 | 152 to 154 °C | Cc1ccc(C(=O)c2ccc(CC(=O)O)n2C)s1
50 | 90 to 95 °C | CCCCCCCCCC1SC(c2cccnc2)NC1=O (configuration not stated)
51 | 295 to 296 °C | Cn1cc(C(=O)O)c(=O)c2cc3cc(F)c(N4CCNC(c5ccco5)C4)c(F)c3nc21 (racemic)
52 | 120 to 123 °C | COc1ncccc1NC(=O)Nc1ccc(N2CCN(C(=O)Nc3ccc(OCCO)cc3C(F)(F)F)CC2)cc1
53 | 105 to 107 °C | CN1C(=O)C2C3CCC(C3)C2(c2cccc(Br)c2)C1=O (configuration not stated)
54 | 295 to 296 °C | CCCc1cc(=O)[nH]c2c3c(cc(O)c12)OC(C)C(C)C3=O (configuration not stated)
55 | 125 to 129 °C | C[C@@H]1c2cccn2-c2ccc(F)cc2N1C(=O)c1ccc(O)cc1
56 | 121 to 124 °C | O=C(C=P(c1ccccc1)(c1ccccc1)c1ccccc1)CCCCO
57 | 118 to 119 °C | CCOC(=O)c1c(CCCCn2cncn2)nc2sc3cnccc3c2c1-c1ccc(OC)c(OC)c1
58 | 239 °C | O=[N+]([O-])c1ccc(CSc2ncnc3nc[nH]c23)cc1
59 | 104 °C | CCOCc1nnc2c(C(F)(F)F)c(Cl)ccn12
60 | 107 to 110 °C | COc1ccc2c(c1)C(=O)N(C)C(C(Cl)(Cl)Cl)O2 (configuration not stated)
61 | 229 to 231 °C | CC(=O)Nc1ccc(S(=O)(=O)Cc2cccc(OC(C)=O)c2)c2ccc(C#N)nc12
62 | 117 to 118 °C | CC(C)(C)OC(=O)N1CCN(C(=O)OC(C)(C)C)C1=S
63 | 176 °C | O=C(O)c1cccc(F)c1Nc1ccccc1F
64 | 74 to 75 °C | Cc1nc(N2CCCC(C(O)c3ccccc3)C2=O)sc1C(=O)NCc1ccccc1 (configuration not stated)
65 | 92 to 94 °C | Cc1cc(OC(=O)C(C)(C)C)cc(C)c1O
66 | 124 to 132 °C | Cc1c(C)c(O)c(CC[C@](C)(O)CO)c(C)c1O
67 | 116 to 117 °C | O=C(CO)c1ccc(F)cc1
68 | 172 to 174 °C | Cc1nc2sc(S(=O)(=O)Cl)cc2c(=O)n1-c1ccccc1Cl
69 | 237 to 239 °C | O=C1Cn2c(cc3ccccc32)C(=O)N1CCCCN1CCN(c2ncccn2)CC1

Row | SMILES | melting point
70 | COc1cccc(N(C)C(=O)Oc2ccc(C(F)(F)F)cc2)n1 | 85 to 86 °C
71 | CCc1cc2c3c(ccc2[nH]1)OCC(CN1CC=C(c2c[nH]c4ccc(F)cc24)CC1)O3 (configuration not stated) | 81 to 82 °C
72 | CCNC(=O)c1ncn2c1CN=C(c1ccccc1Br)c1cc(F)ccc1-2 | 218 to 220 °C
